Laboratory results from BindingDB's records for doi:10.1021/acs.jmedchem.8b00370 (Genentech, 2018).

Biological target: Mitogen-activated protein kinase kinase kinase 12 (Homo sapiens) (UniProt Q12852)
Experiment: Inhibition of DLK (unknown origin) using myelin basic protein as substrate preincubated for 15 mins measured after 30 mins in presence of [gamma-32P]ATP by scintillation counting

Mitogen-activated protein kinase kinase kinase 12 (Homo sapiens), sequence (Q12852 whole entry, looked up): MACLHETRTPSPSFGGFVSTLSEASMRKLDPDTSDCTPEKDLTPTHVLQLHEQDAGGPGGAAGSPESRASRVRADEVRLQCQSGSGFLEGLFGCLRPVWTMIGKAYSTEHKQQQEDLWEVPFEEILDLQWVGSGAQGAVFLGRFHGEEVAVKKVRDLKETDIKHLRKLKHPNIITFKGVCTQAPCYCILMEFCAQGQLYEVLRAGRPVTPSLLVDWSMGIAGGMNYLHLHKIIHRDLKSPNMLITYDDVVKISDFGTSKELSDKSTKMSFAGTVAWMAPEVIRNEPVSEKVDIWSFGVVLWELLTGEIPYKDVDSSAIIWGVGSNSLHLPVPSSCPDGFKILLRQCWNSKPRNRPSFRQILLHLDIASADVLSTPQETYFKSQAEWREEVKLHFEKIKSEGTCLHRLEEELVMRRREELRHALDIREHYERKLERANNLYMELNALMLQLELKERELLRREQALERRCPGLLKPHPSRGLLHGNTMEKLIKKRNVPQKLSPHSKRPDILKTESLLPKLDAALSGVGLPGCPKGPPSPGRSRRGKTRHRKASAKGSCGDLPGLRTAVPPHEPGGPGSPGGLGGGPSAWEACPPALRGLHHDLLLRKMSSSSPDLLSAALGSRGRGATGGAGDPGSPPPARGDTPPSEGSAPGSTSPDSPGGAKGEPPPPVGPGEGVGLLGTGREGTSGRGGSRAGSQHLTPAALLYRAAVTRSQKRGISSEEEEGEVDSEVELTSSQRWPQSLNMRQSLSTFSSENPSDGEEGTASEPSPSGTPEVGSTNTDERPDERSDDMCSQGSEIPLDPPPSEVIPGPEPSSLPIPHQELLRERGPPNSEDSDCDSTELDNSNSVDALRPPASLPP

CC(C)n1c2ccc(Oc3ncccn3)cc2c2c3c(c4c(c21)CCc1nn(C)cc1-4)C(=O)NC3
IC50: 1 nM
